How the values were obtained:
cholesterol synthesis = assay: Measurement of inhibition of cholesterol synthesis in mice ([3H]mevalonolactone incorporation in liver); type: in vivo; conditions: female Swiss-Webster mice, subcutaneous
Method: Female Swiss-Webster mice, approximately 25 grams, were dosed subcutaneously with the test compound or just with saline for controls. The tri-sodium salt of Compound A was dissolved in 0.9% NaCl and administered in a volume of less than 0.1 ml. Thirty minutes after receiving a dose of the test compound or saline for the controls, the mice were subcutaneously administered a dose of 0.5 uCi of R,S-[5-^3 H]mevalonolactone (35 Ci/mmol). The tracer mevalonolactone was dissolved in 0.9% NaCl and administered in a volume of 0.05 ml. Thirty minutes after receiving the dose of mevalonolactone, the animals were euthanized, and the livers were removed and saponified in a solution of 4 ml of 40% KOH and 2 ml of 95% ethanol overnight at 65° C. The saponified livers were extracted with two 5 ml volumes of petroleum ether. Incorporation of ^3 H into this petroleum ether fraction was used to measure cholesterol synthesis. Inhibition of cholesterol synthesis was determined by comparing the incorporation of ^3 H in the petroleum ether fraction in control animals to the incorporation in the petroleum ether fraction in the compound test animals.

squalene synthetase = biological target: T1, squalene synthetase (Rattus norvegicus, UniProt Q02769); assay: Squalene synthetase assay (rat liver microsomes, [4-14C]farnesyl-pyrophosphate); type: biochemical; conditions: 30° C., 20 minutes, read-out: IC50, squalene synthetase inhibition
T1 construct: The resulting microsomal pellet was resuspended in a volume of the above homogenizing buffer; from tissue; host or cells: rat liver microsomes (male Charles River CD rats fed 0.1% lovastatin)
T1 sequence (Q02769 1-416): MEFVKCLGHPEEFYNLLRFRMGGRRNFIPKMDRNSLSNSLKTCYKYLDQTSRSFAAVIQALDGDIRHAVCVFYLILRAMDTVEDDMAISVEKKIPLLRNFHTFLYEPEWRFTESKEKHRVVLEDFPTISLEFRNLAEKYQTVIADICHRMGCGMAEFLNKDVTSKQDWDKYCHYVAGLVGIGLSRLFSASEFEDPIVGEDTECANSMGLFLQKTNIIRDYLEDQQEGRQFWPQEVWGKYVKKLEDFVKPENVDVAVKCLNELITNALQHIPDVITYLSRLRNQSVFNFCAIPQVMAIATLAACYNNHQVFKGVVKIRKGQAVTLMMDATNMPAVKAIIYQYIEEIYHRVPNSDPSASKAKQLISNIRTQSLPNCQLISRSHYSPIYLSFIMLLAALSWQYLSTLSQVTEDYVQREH
Method: Male, Charles River CD rats (120 to 150 g) were fed a diet containing 0.1% lovastatin for 4 days. The livers from these rats were homogenized in 5 volumes (ml/g) of ice cold 50 mM HEPES (4-(2-hydroxyethyl)-1-piperazine-ethanesulfonic acid), 5 mM EDTA(ethylenediaminetetraacetic acid) pH 7.5 with a Potter-Elvehjem type tissue grinder. The homogenate was centrifuged twice at 20,000× g for 15 minutes at 4° C., discarding the pellet each time. The supernatant was then centrifuged at 100,000× g for 1 hour at 4° C. The resulting microsomal pellet was resuspended in a volume of the above homogenizing buffer equal to one-fifth the volume of the original homogenate. This microsomal preparation has a protein concentration of about 7 mg/ml. The microsomal suspensions were stored in aliquots at -70° C. Squalene synthetase activity in these aliquots is stable for at least several months.
Reaction were performed in 16×125 mm screw cap test tubes. A batch assay mix was prepared from the following solution:
This assay mix was degassed under a vacuum and flushed with N2. […] Ten ml of scintillation fluid was added to the heptane solution and radioactivity was determined by liquid scintillation counting.
Percent inhibition is calculated by the formula: [formula]
IC50 values were determined by plotting the log of the concentration of the test compound versus the percentage inhibition.

IC50 (squalene synthetase): ~300 nM
Compound: C/C(=C\C(C)Cc1ccccc1)CCCCCC(C(=O)O)C(O)(CC(=O)O)C(=O)O (stereo not drawn) [Compound A]
ED50 (cholesterol synthesis; Mus musculus, sc, tri-sodium salt in 0.9% NaCl, dosed 30 min before [3H]mevalonolactone): ~15 mg/kg
inhibition of cholesterol synthesis in mice (in words) (cholesterol synthesis): potent inhibitor of cholesterol synthesis in mice

— patent US5286895A, “Cholesterol lowering compounds” (Merck & Co., Inc., priority 1992, dated 1994)
